# In ChEMBL document CHEMBL1909046, “DrugMatrix in vitro pharmacology data”:
# Test system: not listed separately
# Assay: DRUGMATRIX: Leukotriene, BLT (LTB4) radioligand binding (ligand: [3H]LTB4)
# Format: cell membranes, Membrane
# Details: u-937; Not Active = under 50% inhibition at 10 µM
SMILES,IC50,Ki
C=CCc1ccc(O)c(OC)c1 [EUGENOL],Not Active,Not Active
CC(C(=O)O)c1cccc(Oc2ccccc2)c1 (stereo unspecified) [FENOPROFEN],Not Active,Not Active
CC(C)(C)NC(=O)[C@H]1CC[C@H]2[C@@H]3CC[C@H]4NC(=O)C=C[C@]4(C)[C@H]3CC[C@]12C [FINASTERIDE],Not Active,Not Active
COc1ccc2c3c1O[C@H]1C[C@@H](O)C=C[C@@]31CCN(C)C2 [GALANTAMINE],Not Active,Not Active
Nc1ccn([C@@H]2O[C@H](CO)[C@@H](O)C2(F)F)c(=O)n1 [GEMCITABINE],Not Active,Not Active
CC(C)=CCC/C(C)=C/CO [GERANIOL],Not Active,Not Active
N=C(N)NC(=O)Cc1c(Cl)cccc1Cl [GUANFACINE],Not Active,Not Active
Oc1c(Cl)cc(Cl)c(Cl)c1Cc1c(O)c(Cl)cc(Cl)c1Cl [HEXACHLOROPHENE],Not Active,Not Active
NNc1nncc2ccccc12 [HYDRALAZINE],Not Active,Not Active

# Biological target: T1, Thromboxane-A synthase (Homo sapiens, UniProt P24557);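 note: enzyme inhibition assay with PGH2 supplied as substrate; in other assays of this panel Not Active means under 50% inhibition at 10 µM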
# T1 sequence (P24557 whole entry): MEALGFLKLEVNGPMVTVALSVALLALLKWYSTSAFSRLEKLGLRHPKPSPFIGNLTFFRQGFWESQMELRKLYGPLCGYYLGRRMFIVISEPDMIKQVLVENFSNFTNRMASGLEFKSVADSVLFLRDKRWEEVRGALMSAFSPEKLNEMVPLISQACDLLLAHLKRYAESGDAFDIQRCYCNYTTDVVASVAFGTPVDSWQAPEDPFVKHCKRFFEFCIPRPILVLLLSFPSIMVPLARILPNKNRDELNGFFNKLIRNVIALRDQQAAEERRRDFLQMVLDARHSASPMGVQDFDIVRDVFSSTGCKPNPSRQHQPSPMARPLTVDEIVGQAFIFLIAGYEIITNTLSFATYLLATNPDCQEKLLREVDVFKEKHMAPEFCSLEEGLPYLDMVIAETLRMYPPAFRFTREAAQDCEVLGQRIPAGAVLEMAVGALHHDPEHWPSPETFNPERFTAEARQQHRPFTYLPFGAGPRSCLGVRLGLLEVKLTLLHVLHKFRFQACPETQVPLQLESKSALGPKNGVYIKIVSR
# Assay: biochemical
# Format: tissue-based, Platelet
# Details: platelet
row,SMILES,IC50
1,C=CCc1ccc(O)c(OC)c1 [EUGENOL],Not Active
2,CC(C(=O)O)c1cccc(Oc2ccccc2)c1 (stereo unspecified) [FENOPROFEN],Not Active
3,CC(C)(C)NC(=O)[C@H]1CC[C@H]2[C@@H]3CC[C@H]4NC(=O)C=C[C@]4(C)[C@H]3CC[C@]12C [FINASTERIDE],Not Active
4,COc1ccc2c3c1O[C@H]1C[C@@H](O)C=C[C@@]31CCN(C)C2 [GALANTAMINE],Not Active
5,Nc1ccn([C@@H]2O[C@H](CO)[C@@H](O)C2(F)F)c(=O)n1 [GEMCITABINE],Not Active
6,CC(C)=CCC/C(C)=C/CO [GERANIOL],Not Active
7,N=C(N)NC(=O)Cc1c(Cl)cccc1Cl [GUANFACINE],Not Active
8,NNc1nncc2ccccc12 [HYDRALAZINE],Not Active

# Same assay, conditions: read-out: IC50
row,SMILES,IC50 [µM]
1,Oc1c(Cl)cc(Cl)c(Cl)c1Cc1c(O)c(Cl)cc(Cl)c1Cl [HEXACHLOROPHENE],3.09

# Biological target: T2, Muscarinic acetylcholine receptor M2 (Homo sapiens, UniProt P08172); note: in other assays of this panel Not Active means under 50% inhibition at 10 µM
# T2 sequence (P08172 whole entry): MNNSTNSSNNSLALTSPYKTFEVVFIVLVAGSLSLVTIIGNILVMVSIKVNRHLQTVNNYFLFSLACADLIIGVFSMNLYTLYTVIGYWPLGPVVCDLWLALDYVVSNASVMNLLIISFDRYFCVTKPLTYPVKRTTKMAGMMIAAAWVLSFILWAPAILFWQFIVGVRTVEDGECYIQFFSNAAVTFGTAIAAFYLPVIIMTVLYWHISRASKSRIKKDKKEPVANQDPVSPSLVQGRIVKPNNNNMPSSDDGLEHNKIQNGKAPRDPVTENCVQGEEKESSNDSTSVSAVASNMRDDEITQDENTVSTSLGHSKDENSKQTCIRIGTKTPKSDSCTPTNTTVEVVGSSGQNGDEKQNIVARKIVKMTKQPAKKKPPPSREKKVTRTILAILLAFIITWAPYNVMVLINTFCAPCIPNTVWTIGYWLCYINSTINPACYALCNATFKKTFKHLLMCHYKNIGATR
# Assay: not given
# Format: cell membranes, CHO-K1, Membrane
# Details: cho-k1
row,SMILES,IC50
1,C=CCc1ccc(O)c(OC)c1 [EUGENOL],Not Active
2,CC(C(=O)O)c1cccc(Oc2ccccc2)c1 (stereo unspecified) [FENOPROFEN],Not Active
3,CC(C)(C)NC(=O)[C@H]1CC[C@H]2[C@@H]3CC[C@H]4NC(=O)C=C[C@]4(C)[C@H]3CC[C@]12C [FINASTERIDE],Not Active
4,COc1ccc2c3c1O[C@H]1C[C@@H](O)C=C[C@@]31CCN(C)C2 [GALANTAMINE],Not Active
5,Nc1ccn([C@@H]2O[C@H](CO)[C@@H](O)C2(F)F)c(=O)n1 [GEMCITABINE],Not Active
6,CC(C)=CCC/C(C)=C/CO [GERANIOL],Not Active
7,N=C(N)NC(=O)Cc1c(Cl)cccc1Cl [GUANFACINE],Not Active
8,Oc1c(Cl)cc(Cl)c(Cl)c1Cc1c(O)c(Cl)cc(Cl)c1Cl [HEXACHLOROPHENE],Not Active
9,NNc1nncc2ccccc12 [HYDRALAZINE],Not Active

# Biological target: Protein phosphatase 3 catalytic subunit alpha (Homo sapiens, UniProt Q08209);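 note: inhibition of calcineurin (PP2B) enzyme activity, measured with DiFMUP as the substrate; in other assays of this panel Not Active means under 50% inhibition at 10 µM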
# Assay: not given
# Set-up: species or system Escherichia coli
# Details: not given
row,SMILES,IC50
1,C=CCc1ccc(O)c(OC)c1 [EUGENOL],Not Active
2,CC(C(=O)O)c1cccc(Oc2ccccc2)c1 (stereo unspecified) [FENOPROFEN],Not Active
3,CC(C)(C)NC(=O)[C@H]1CC[C@H]2[C@@H]3CC[C@H]4NC(=O)C=C[C@]4(C)[C@H]3CC[C@]12C [FINASTERIDE],Not Active
4,COc1ccc2c3c1O[C@H]1C[C@@H](O)C=C[C@@]31CCN(C)C2 [GALANTAMINE],Not Active
5,Nc1ccn([C@@H]2O[C@H](CO)[C@@H](O)C2(F)F)c(=O)n1 [GEMCITABINE],Not Active
6,CC(C)=CCC/C(C)=C/CO [GERANIOL],Not Active
7,N=C(N)NC(=O)Cc1c(Cl)cccc1Cl [GUANFACINE],Not Active
8,Oc1c(Cl)cc(Cl)c(Cl)c1Cc1c(O)c(Cl)cc(Cl)c1Cl [HEXACHLOROPHENE],Not Active
9,NNc1nncc2ccccc12 [HYDRALAZINE],Not Active

# Biological target: T3, 5-hydroxytryptamine receptor 1A (Rattus norvegicus, UniProt P19327); note: in other assays of this panel Not Active means under 50% inhibition at 10 µM
# T3 sequence (P19327 whole entry): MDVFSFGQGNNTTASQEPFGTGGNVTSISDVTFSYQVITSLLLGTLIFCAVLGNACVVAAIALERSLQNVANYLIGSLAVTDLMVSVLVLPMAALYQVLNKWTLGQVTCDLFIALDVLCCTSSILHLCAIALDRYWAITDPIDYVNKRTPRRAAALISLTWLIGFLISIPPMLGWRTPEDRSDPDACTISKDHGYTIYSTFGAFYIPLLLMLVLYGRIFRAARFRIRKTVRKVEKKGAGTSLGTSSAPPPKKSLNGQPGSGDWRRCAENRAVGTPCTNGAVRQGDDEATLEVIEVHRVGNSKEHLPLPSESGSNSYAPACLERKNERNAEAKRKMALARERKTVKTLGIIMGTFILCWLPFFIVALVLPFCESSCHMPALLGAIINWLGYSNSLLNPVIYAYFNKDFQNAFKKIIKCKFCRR
# Assay: not given
# Format: cell membranes, CHO-K1, Membrane
# Details: cho-k1
row,SMILES,IC50
1,C=CCc1ccc(O)c(OC)c1 [EUGENOL],Not Active
2,CC(C(=O)O)c1cccc(Oc2ccccc2)c1 (stereo unspecified) [FENOPROFEN],Not Active
3,CC(C)(C)NC(=O)[C@H]1CC[C@H]2[C@@H]3CC[C@H]4NC(=O)C=C[C@]4(C)[C@H]3CC[C@]12C [FINASTERIDE],Not Active
4,COc1ccc2c3c1O[C@H]1C[C@@H](O)C=C[C@@]31CCN(C)C2 [GALANTAMINE],Not Active
5,Nc1ccn([C@@H]2O[C@H](CO)[C@@H](O)C2(F)F)c(=O)n1 [GEMCITABINE],Not Active
6,CC(C)=CCC/C(C)=C/CO [GERANIOL],Not Active
7,N=C(N)NC(=O)Cc1c(Cl)cccc1Cl [GUANFACINE],Not Active
8,Oc1c(Cl)cc(Cl)c(Cl)c1Cc1c(O)c(Cl)cc(Cl)c1Cl [HEXACHLOROPHENE],Not Active
9,NNc1nncc2ccccc12 [HYDRALAZINE],Not Active

# Biological target: Substance-P receptor (Homo sapiens, UniProt P25103); note: in other assays of this panel Not Active means under 50% inhibition at 10 µM
# Assay: not given
# Format: cell membranes, CHO, Membrane
# Details: cho
# Chain of Substance-P receptor (P25103 whole entry): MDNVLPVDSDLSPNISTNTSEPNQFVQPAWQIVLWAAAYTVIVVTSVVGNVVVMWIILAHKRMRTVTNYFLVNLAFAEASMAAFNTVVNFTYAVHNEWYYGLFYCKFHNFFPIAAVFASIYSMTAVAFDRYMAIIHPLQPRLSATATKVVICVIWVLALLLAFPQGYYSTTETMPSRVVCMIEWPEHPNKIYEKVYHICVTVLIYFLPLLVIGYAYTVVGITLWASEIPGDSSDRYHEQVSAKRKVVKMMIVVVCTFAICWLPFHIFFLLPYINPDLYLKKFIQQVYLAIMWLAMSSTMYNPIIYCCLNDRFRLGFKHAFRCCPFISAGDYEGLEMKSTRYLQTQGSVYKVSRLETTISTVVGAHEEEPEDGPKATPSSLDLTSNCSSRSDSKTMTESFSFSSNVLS
row,SMILES,IC50
1,C=CCc1ccc(O)c(OC)c1 [EUGENOL],Not Active
2,CC(C(=O)O)c1cccc(Oc2ccccc2)c1 (stereo unspecified) [FENOPROFEN],Not Active
3,CC(C)(C)NC(=O)[C@H]1CC[C@H]2[C@@H]3CC[C@H]4NC(=O)C=C[C@]4(C)[C@H]3CC[C@]12C [FINASTERIDE],Not Active
4,COc1ccc2c3c1O[C@H]1C[C@@H](O)C=C[C@@]31CCN(C)C2 [GALANTAMINE],Not Active
5,Nc1ccn([C@@H]2O[C@H](CO)[C@@H](O)C2(F)F)c(=O)n1 [GEMCITABINE],Not Active
6,CC(C)=CCC/C(C)=C/CO [GERANIOL],Not Active
7,N=C(N)NC(=O)Cc1c(Cl)cccc1Cl [GUANFACINE],Not Active
8,Oc1c(Cl)cc(Cl)c(Cl)c1Cc1c(O)c(Cl)cc(Cl)c1Cl [HEXACHLOROPHENE],Not Active
9,NNc1nncc2ccccc12 [HYDRALAZINE],Not Active

# Test system: not listed separately
# Assay: DRUGMATRIX: Interleukin IL-1 radioligand binding (ligand: [125I] interleukin 1beta)
# Format: cell membranes, Membrane
# Details: nih3t3; Not Active = under 50% inhibition at 10 µM
SMILES,IC50,Ki
C=CCc1ccc(O)c(OC)c1 [EUGENOL],Not Active,Not Active
CC(C(=O)O)c1cccc(Oc2ccccc2)c1 (stereo unspecified) [FENOPROFEN],Not Active,Not Active
CC(C)(C)NC(=O)[C@H]1CC[C@H]2[C@@H]3CC[C@H]4NC(=O)C=C[C@]4(C)[C@H]3CC[C@]12C [FINASTERIDE],Not Active,Not Active
COc1ccc2c3c1O[C@H]1C[C@@H](O)C=C[C@@]31CCN(C)C2 [GALANTAMINE],Not Active,Not Active
Nc1ccn([C@@H]2O[C@H](CO)[C@@H](O)C2(F)F)c(=O)n1 [GEMCITABINE],Not Active,Not Active
CC(C)=CCC/C(C)=C/CO [GERANIOL],Not Active,Not Active
N=C(N)NC(=O)Cc1c(Cl)cccc1Cl [GUANFACINE],Not Active,Not Active
Oc1c(Cl)cc(Cl)c(Cl)c1Cc1c(O)c(Cl)cc(Cl)c1Cl [HEXACHLOROPHENE],Not Active,Not Active
NNc1nncc2ccccc12 [HYDRALAZINE],Not Active,Not Active
